Experimental data published in patent US9527856B2, “Oxindole compounds carrying a CO-bound spiro substituent and use thereof for treating vasopressin-related diseases” (AbbVie Deutschland GmbH & Co. KG, priority 2014, dated 2016).

What was measured:
[1] = molecular target: T1, human vasopressin V1b receptor (Homo sapiens, UniProt P47901); assay: biochemical; conditions: Ki(h-V1b)* [nM], CHO-K1 cell membranes, displacement of 3H-AVP
T1 sequence (P47901 1-424): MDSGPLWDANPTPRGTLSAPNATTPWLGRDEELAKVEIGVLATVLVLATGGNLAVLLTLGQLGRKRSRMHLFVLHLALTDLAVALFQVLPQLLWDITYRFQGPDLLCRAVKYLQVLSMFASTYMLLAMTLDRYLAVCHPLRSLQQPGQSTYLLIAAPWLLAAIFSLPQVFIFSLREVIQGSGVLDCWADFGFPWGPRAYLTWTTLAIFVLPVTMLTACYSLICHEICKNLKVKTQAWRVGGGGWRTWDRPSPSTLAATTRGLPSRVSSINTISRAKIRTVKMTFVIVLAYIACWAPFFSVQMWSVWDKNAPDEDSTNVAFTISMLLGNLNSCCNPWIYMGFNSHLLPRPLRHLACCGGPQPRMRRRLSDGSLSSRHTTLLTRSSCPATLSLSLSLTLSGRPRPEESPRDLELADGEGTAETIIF

[2] = molecular target: human vasopressin V1a receptor (Homo sapiens, UniProt P37288); assay: Vasopressin V1a receptor binding assay; conditions: selectivity for human V1b over human V1a, quotient of binding constants
Sequence of human vasopressin V1a receptor (P37288 whole entry): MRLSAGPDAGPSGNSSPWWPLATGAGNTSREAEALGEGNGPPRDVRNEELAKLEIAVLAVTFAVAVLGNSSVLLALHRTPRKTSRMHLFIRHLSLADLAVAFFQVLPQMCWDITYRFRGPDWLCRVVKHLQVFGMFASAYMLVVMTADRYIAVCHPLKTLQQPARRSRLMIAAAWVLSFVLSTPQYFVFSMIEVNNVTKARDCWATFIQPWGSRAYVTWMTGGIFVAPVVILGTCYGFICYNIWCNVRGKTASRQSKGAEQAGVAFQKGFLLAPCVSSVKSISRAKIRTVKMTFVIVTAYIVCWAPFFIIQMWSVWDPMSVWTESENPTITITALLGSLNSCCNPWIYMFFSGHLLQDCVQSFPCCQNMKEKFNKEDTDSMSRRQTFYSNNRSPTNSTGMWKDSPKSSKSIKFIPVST

SMILES	Ki [1] [nM]	Ki(h-V1a)/Ki(h-V1b) [2]
CCOc1ncccc1[C@]1(NC(=O)N2CC3(CN(CCN4CCOCC4)C3)C2)C(=O)N(S(=O)(=O)c2ccc(OC)cc2)c2cc(F)c(C#N)cc21 [Example 19, N-[(3S)-5-Cyano-3-(2-ethoxy-3-pyridyl)-6-fluoro-1-(4-methoxyphenyl)sulfonyl-2-oxo-indolin-3-yl]-2-(2-morpholinoethyl)-2,6-diazaspiro[3.3]heptane-6-carboxamide]	1 to 10	+++ (>75)
CCOc1ccccc1[C@]1(NC(=O)N2CC3(C2)CN(C2CCN(C(C)C)CC2)C3)C(=O)N(S(=O)(=O)c2ccc(F)cc2)c2ccc(C#N)cc21.O=C(O)C(F)(F)F [Example 43B, N-[(3S)-5-Cyano-3-(2-ethoxyphenyl)-1-(4-fluorophenyl)sulfonyl-2-oxo-indolin-3-yl]-2-(1-isopropyl-4-piperidyl)-2,6-diazaspiro[3.3]heptane-6-carboxamide; 2,2,2-trifluoroacetic acid]	10 to 100	+++ (>75)
CCOc1ccccc1[C@]1(NC(=O)N2CC3(C2)CN(C2CCN(C4COC4)CC2)C3)C(=O)N(S(=O)(=O)c2ccc(OC)cc2)c2ccc(C#N)cc21.O=C(O)C(F)(F)F [Example 35B, N-[(3S)-5-Cyano-3-(2-ethoxyphenyl)-1-(4-methoxyphenyl)sulfonyl-2-oxo-indolin-3-yl]-2-[1-(oxetan-3-yl)-4-piperidyl]-2,6-diazaspiro[3.3]heptane-6-carboxamide; 2,2,2-trifluoroacetic acid]	10 to 100	++ (25-75)
CCOc1ccccc1[C@]1(NC(=O)N2CC3(C2)CN(C2CCN(C(C)C)CC2)C3)C(=O)N(S(=O)(=O)c2ccc(C#N)cc2)c2ccc(C#N)cc21 [Example 42, N-[(3S)-5-Cyano-1-(4-cyanophenyl)sulfonyl-3-(2-ethoxyphenyl)-2-oxo-indolin-3-yl]-2-(1-isopropyl-4-piperidyl)-2,6-diazaspiro[3.3]heptane-6-carboxamide]	10 to 100	+++ (>75)
CCOc1ncccc1[C@]1(NC(=O)C2CC3(C2)CN(C2CN(C)C2)C3)C(=O)N(S(=O)(=O)c2ccc(OC)cc2)c2ccc(C#N)cc21 [Example 46, N-[(3S)-5-Cyano-3-(2-ethoxy-3-pyridyl)-1-(4-methoxyphenyl)sulfonyl-2-oxo-indolin-3-yl]-6-(1-methylazetidin-3-yl)-6-azaspiro[3.3]heptane-2-carboxamide]	1 to 10	+ (10-<25)
CCOc1ncccc1[C@]1(NC(=O)N2CC3(CN(CCN4CCOCC4)C3)C2)C(=O)N(S(=O)(=O)c2ccc(OC)cn2)c2ccc(C#N)cc21 [Example 4, N-[(3S)-5-Cyano-3-(2-ethoxy-3-pyridyl)-1-[(5-methoxy-2-pyridyl)sulfonyl]-2-oxo-indolin-3-yl]-2-(2-morpholinoethyl)-2,6-diazaspiro[3.3]heptane-6-carboxamide]	1 to 10	+++ (>75)
CCOc1ncccc1[C@]1(NC(=O)N2CC3(CN(CCN4CCOCC4)C3)C2)C(=O)N(S(=O)(=O)c2ccc(OC)cc2F)c2ccc(C#N)cc21 [Example 18, N-[(3S)-5-Cyano-3-(2-ethoxy-3-pyridyl)-1-(2-fluoro-4-methoxy-phenyl)sulfonyl-2-oxo-indolin-3-yl]-2-(2-morpholinoethyl)-2,6-diazaspiro[3.3]heptane-6-carboxamide]	< 1	+++ (>75)
CCOc1ncccc1[C@]1(NC(=O)N2CC3(CN(CCN4CCOCC4)C3)C2)C(=O)N(S(=O)(=O)c2ccc(OC)cc2F)c2ccc(C#N)cc21.O=C(O)C(F)(F)F [Example 6, N-[(3S)-5-Cyano-3-(2-ethoxy-3-pyridyl)-1-(2-fluoro-4-methoxy-phenyl)sulfonyl-2-oxo-indolin-3-yl]-2-(2-morpholinoethyl)-2,6-diazaspiro[3.3]heptane-6-carboxamide; 2,2,2-trifluoroacetic acid]	1 to 10	++ (25-75)
